Data as given in patent publication US20090311176A1, “2-Arylpyrazolo[L,5-Alpha] Pyrimidin-3-YL Acetamide Derivatives as Ligands for Translocator Protein (18 Kda)” (The University of Sydney, priority 2006, published 2009).

What was measured:
CBR = CBR binding with [^3H]Ro 15-1788, rat brain tissue; conditions: for affinity for the CBR (in words): [^3H]Ro 15-1788, rat brain tissue; for Ki: [^3H]Ro 15-1788 radioligand, rat brain tissue
Rat glioma C6 cells = test: Steroid biosynthesis (pregnenolone) assay in C6 cells; format: cell-based; conditions: 40 μM
Method: All compounds were used at the same concentration (40 μM); at the end of the incubation period (2 h), the amount of pregnenolone was quantified by radio immunoassay (RIA). The values are the mean of at least three determinations.
Rat glioma C6 cells were cultured in Dulbecco's modified Eagle's medium supplemented with 10% FBS, 2 mM L-glutamine, 100 units/mL penicillin and 100 μg/mL streptomycin. Cultures were maintained in a humidified atmosphere of 5% CO2/95% air at 37° C.
C6 cells were seeded in 24-well plates at a density of ˜1×10^6 cells/well in a final volume of 1 ml. Prior to measurement of pregnenolone production the cells were washed three times with a simple salts medium consisting of 140 mM NaCl, 5 mM KCl, 1.8 mM CaCl2, 1 mM MgSO4, 10 mM glucose, 10 mM HEPES/NaOH, pH 7.4, plus 0.1% BSA. During experiments, cells were incubated with this simple salts medium in an air incubator at 37° C. […] At the end of the incubation period (2 h) the cell medium was retained and centrifuged at 1500 g for 10 min. The amount of pregnenolone secreted into the medium was quantified by radio immunoassay (RIA), using an antibody obtained from ICN Biochemical Inc., Calif., USA, under the conditions recommended by the supplier.

[1] = Log D determined via HPLC; format: physicochemical
Sprague-Dawley rat = test: Single intravenous dose toxicity study in the rat; format: in vivo
Method: The study involved 2 groups of […] SPF Sprague-Dawley rats (each of 5 males and 5 females), 7 weeks old and weighing between 193.1 g and 215 g for males and between 160.6 g and 180.1 g for females on the day of randomisation. Animals were purchased from Charles River Laboratories France (Domaine des Oncins—69592 L'Arbresle Cedex, France).
Animals were weighed on the day of randomisation, on D7, D14 and D15 (day of necropsy).
General observations were performed on D1, 60 minutes±30 minutes after dosing, again between 3 and 4 hours post-dose and then once a day for 14 days. Functional and neurobehavioural tests were also assessed on D1, 60 minutes±30 minutes after dosing and then on D7 and D 14. Mortality was recorded twice a day for 14 days. All animals surviving at the end of the 14-day period were submitted to gross necropsy.

TSPO [2] = test: In vivo [^18F]DPA-714 baboon PET studies (baseline, blocking, displacement); design: species or system Papio hamadryas baboon
Method: This dual modality device has a fully-3D PET scanner with 24 crystal rings and a dual slice CT scanner in the same gantry. It yields a reconstructed PET spatial resolution of 6.3 mm full width at half maximum (FWHM) at the centre of the field of view. The baboon was initially anaesthetized with ketamine (8 mg/kg, im). Anaesthesia was maintained with the use of an iv infusion of ketamine (Parnell Laboratory, Australia) in saline at a dose rate of 0.2 mg ketamine/kg/min. The baboon also received MgSO4 (2 mL iv) given over half an hour plus atropine (1 mg im) plus maxalon (5 mg im). The head of the baboon was immobilised with plastic tape to minimise motion artifacts. A CT scan of the head was completed prior to radioligand injection. Acquisition of the PET data in list mode was commenced just prior to radioligand injection and continued for a period of 60 min. […] At the conclusion of each study the list mode data were sorted into a dynamic scan comprising 54 frames (20×30 s, 30×60 s and 4×300 s). […] The radioligand uptake was converted to units of percent injected dose per volume of brain tissue (% dose/mL) and plotted against time.
Decay corrected time activity curves representing the variation in ligand concentration vs. time were constructed from selected slices for regions of interest over the thalamus, cerebellum, striaturn, cortex, skull and whole brain. After the list-mode acquisition, a whole body PET-CT scan was performed, 2 minutes at each of the six bed positions, to determine other sites of radioligand uptake.

TSPO [3] = target: T1, TSPO (Rattus norvegicus, UniProt P16257); test: Ex vivo biodistribution of [^18F]DPA-714 in QA lesioned rats; conditions: pre-injection 15 min before radioligand; PK 11195 5 mg/kg, DPA-714 and DPA-713 1 mg/kg
T1 construct: from tissue; host or cells: living rat; peripheral tissues and brain regions
Method: Adult male Wistar rats weighing 300-320 g (Janvier, Le Genest-St-Isle, France) were used for ex vivo experiments.
Quinolonic acid (QA) lesions: Rats were anesthetised with isoflurane (4%, 500 mL/min), placed on a stereotaxic apparatus (Stoelting, Phymep, Paris, France) and were maintained under isoflurane 2% (500 mL/min) during surgery. The skull was exposed and small holes were made with use of a dental drill. […] A cannula (gauge 25, Hamilton, Massy, France) was inserted and a solution of QA (300 nmol in 2 μL phosphate buffer, pH 7.4) was infused at a flow rate of 0.5 μL/min. The syringe was left in place for 4 minutes before being removed to avoid backflow of QA. The bone was filled in with wax and the scalp was then sutured.
For peripheral tissue, results were expressed as the ratio (% ID/g tissue)/(% ID/g blood)±SEM. For brain, results were expressed as the ratio (% ID/g cerebral region)/(% ID/g cerebellum)±SEM. Student t test was performed when the number of data was ≧5. Statistic significance was considered for p<0.05.

[4] = system: peripheral benzodiazepine receptor; conditions: monkey occipital cortex, PET; cited from earlier work
[5] = target: T2, peripheral benzodiazepine receptor (PBR) (Rattus norvegicus, UniProt P16257); test: PET in rat model of HSV encephalitis; format: in vivo; conditions: olfactory and retrograde brain areas where HSV-1 accumulates
T2 construct: from tissue; host or cells: living rat (brain, PET and ex vivo biodistribution)
Text: Male Wistar rats were intranasally inoculated with the herpes simplex virus type-1(10^7 PFU in 1001 PBS) or PBS (control). Within a week following inoculation, replicating virus migrated into the brain and induced neuroinflammation.

[6] = In-vivo stability of [^18F]DPA-714 in rat plasma (TLC); conditions: 2 h post tracer injection

SMILES: CCN(CC)C(=O)Cc1c(-c2ccc(OC)cc2)nn2c(C)cc(C)nc12 [DPA-713, N,N-Diethyl-2-[2-(4-methoxy-phenyl)-5,7-dimethylpyrazolo[1,5-a]pyrimidin-3-yl]-acetamide]
- affinity for the CBR (in words) (CBR): negligible
- Ki (CBR): > 10000 nM
- effect on steroidogenesis (in words) (Rat glioma C6 cells; 2 h, C6 glioma rat cells): no effect
- chromatographic logD [1]: 2.44

SMILES: CCN(CC)C(=O)Cc1c(-c2ccc(OCCF)cc2)nn2c(C)cc(C)nc12 [DPA-714, N,N-Diethyl-2-{2-[4-(2-fluoro-ethoxy)-phenyl]-5,7-dimethyl-pyrazolo[1,5-a]pyrimidin-3-yl}-acetamide]
- affinity for the CBR (in words) (CBR): negligible
- Ki (CBR): > 10000 nM
- pregnenolone synthesis above baseline (Rat glioma C6 cells; 2 h, C6 glioma rat cells, RIA): 80%
- activity at stimulating neurosteroid synthesis compared with PK 11195 (Rat glioma C6 cells; same assay): twice more active
- chromatographic logD [1]: 2.44
- toxicity signs overall (Sprague-Dawley rat; administered once i.v. at 5 mL/kg, batch No. 140306): did not induce any toxicity sign
- LD50 (Sprague-Dawley rat; rat, in vivo, iv): higher than 5 mL/kg
- displacement of [^18F]DPA-714 from whole baboon brain (TSPO [2]; cold DPA-714 1 mg/kg at 20 minutes post injection): complete washout of the radioligand
- displacement of [^18F]DPA-714 binding in peripheral regions (TSPO [2]; cold DPA-714 at 20 minutes after radioligand, data not shown): complete displacement

SMILES: CCC(C)N(C)C(=O)c1cc2ccccc2c(-c2ccccc2Cl)n1 (stereo not drawn) [PK 11195]
- affinity for the CBR (in words) (CBR): negligible
- Ki (CBR): > 10000 nM
- inhibition of [^18F]DPA-714 uptake in peripheral tissues by pre-treatment (TSPO [3]): significant inhibition of radioligand uptake in the heart, bone and liver but not in the adrenals and muscle
- chromatographic logD [1]: 3.35

SMILES: COc1ccc(O[11CH3])c(CN(C(C)=O)c2cc(F)ccc2Oc2ccccc2)c1 [[^11C]DAA1106]
- binding compared with [^11C](R)-PK 11195 [4]: four times greater

SMILES: CCC(C)N([11CH3])C(=O)c1cc2ccccc2c(-c2ccccc2Cl)n1 (stereo not drawn) [[^11C]PK11195]
- uptake in HSE rats versus control (in words) [5]: not significantly increased

SMILES: CCN(CC)C(=O)Cc1c(-c2ccc(OCC[18F])cc2)nn2c(C)cc(C)nc12 [[^18F]DPA-714]
- radioactivity in rat plasma consisting of the parent compound [6]: 78±1%
- uptake in the baboon skull (TSPO [2]; baseline PET study): No uptake
- blood brain barrier penetration / accumulation in the brain (TSPO [2]; baseline PET study, 100 MBq i.v., baboon): capable of penetrating the blood brain barrier with considerable accumulation in the brain
- time to maximum uptake in whole baboon brain (TSPO [2]; baseline study, time activity curve): within ten minutes
- whole body uptake in the heart, adrenals and salivary glands (TSPO [2]; whole body PET after brain imaging): high uptake
